Reference: ChEMBL document CHEMBL5705896 (ACS Chem Biol, 2013)
pIC50: −log10 of the molar value. Calls of active or inactive are those of the source. The rule behind the calls is not given here.

How the values were obtained:
[1] = molecular target: Histamine H2 receptor (Homo sapiens) (UniProt P25021); experiment: Inhibition of H2 receptor (unknown origin) at 10 uM by radioligand binding assay relative to control
[2] = molecular target: Dual specificity tyrosine-phosphorylation-regulated kinase 1B (Homo sapiens) (UniProt Q9Y463); experiment: Inhibition of full length human N-terminal GST tagged DYRK1B (1 to 629 end residues) expressed in baculovirus expression system using DYRKtide-F as substrate at 10 uM by mobility shift assay relative to control
[3] = molecular target: Tyrosine-protein kinase ITK/TSK (Homo sapiens) (UniProt Q08881); experiment: Inhibition of human cytoplasmic domain N-terminal GST tagged ITK (2 to 620 end residues) expressed in baculovirus expression system using Srctide as substrate at 10 uM by mobility shift assay relative to control
[4] = molecular target: Alpha-1B adrenergic receptor (Homo sapiens) (UniProt P35368); experiment: Inhibition of Alpha1B receptor (unknown origin) at 10 uM by radioligand binding assay relative to control
[5] = molecular target: Muscarinic acetylcholine receptor M3 (Homo sapiens) (UniProt P20309); experiment: Inhibition of M3 receptor (unknown origin) at 10 uM by radioligand binding assay relative to control
[6] = Toxicity in Swiss albino mouse assessed as adverse effect at 15 to 150 mg/kg administered as single ip dose measured upto 24 hrs; type: organism-based; conditions: in vivo, dose 15-150 mg/kg
[7] = molecular target: AMP-activated protein kinase (AMPK) alpha-1/beta-1/gamma-1 (Homo sapiens) (UniProt P54619+Q9Y478+Q13131); experiment: Inhibition of full length human N-terminal GST tagged AMPK alpha1(1 to 550 end residues)/beta1 (1 to 270 end residues)/gamma1 (1 to 331 end residues) expressed in baculovirus expression system using SAMS peptide as substrate at 10 uM by mobility shift assay relative to control
[8] = molecular target: MAP kinase-activated protein kinase 2 (Homo sapiens) (UniProt P49137); experiment: Inhibition of full length human N-terminal GST tagged MAPKAPK2 1 to 400 end residues) expressed in baculovirus expression system using GS as peptide at 10 uM by mobility shift assay relative to control
Sequence of MAP kinase-activated protein kinase 2 (Homo sapiens) (P49137 whole entry, looked up, the tested form may be a part): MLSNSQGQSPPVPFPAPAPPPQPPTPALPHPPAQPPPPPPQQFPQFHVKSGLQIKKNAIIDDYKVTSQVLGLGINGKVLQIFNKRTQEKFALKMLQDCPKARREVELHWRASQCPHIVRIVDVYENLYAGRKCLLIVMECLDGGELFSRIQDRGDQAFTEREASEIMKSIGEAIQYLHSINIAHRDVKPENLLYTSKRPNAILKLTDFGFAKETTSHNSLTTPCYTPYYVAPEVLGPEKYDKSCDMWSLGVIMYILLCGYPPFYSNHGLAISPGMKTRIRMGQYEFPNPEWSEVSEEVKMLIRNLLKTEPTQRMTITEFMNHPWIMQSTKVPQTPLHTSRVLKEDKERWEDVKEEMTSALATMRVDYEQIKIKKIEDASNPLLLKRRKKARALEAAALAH

[9] = molecular target: Inhibitor of nuclear factor kappa-B kinase subunit beta (Homo sapiens) (UniProt O14920); experiment: Inhibition of truncated human N-terminal his-tagged IKK beta (1 to 662 residues) expressed in baculovirus expression system using modified IkappaB-alpha derived peptide as substrate at 10 uM by mobility shift assay relative to control
[10] = molecular target: Rho-associated protein kinase 1 (Homo sapiens) (UniProt Q13464); experiment: Inhibition of human catalytic domain N-terminal GST tagged ROCK1 (1 to 477 residues) expressed in baculovirus expression system using LIMKtide as substrate at 10 uM by mobility shift assay relative to control
[11] = molecular target: Platelet-derived growth factor receptor alpha (Homo sapiens) (UniProt P16234); experiment: Inhibition of human cytoplasmic domain N-terminal GST tagged PDGFR alpha (550 to 1089 residues) expressed in baculovirus expression system using CSKtide as substrate at 10 uM by mobility shift assay relative to control
Sequence of Platelet-derived growth factor receptor alpha (Homo sapiens) (P16234 whole entry, the tested form may be a part): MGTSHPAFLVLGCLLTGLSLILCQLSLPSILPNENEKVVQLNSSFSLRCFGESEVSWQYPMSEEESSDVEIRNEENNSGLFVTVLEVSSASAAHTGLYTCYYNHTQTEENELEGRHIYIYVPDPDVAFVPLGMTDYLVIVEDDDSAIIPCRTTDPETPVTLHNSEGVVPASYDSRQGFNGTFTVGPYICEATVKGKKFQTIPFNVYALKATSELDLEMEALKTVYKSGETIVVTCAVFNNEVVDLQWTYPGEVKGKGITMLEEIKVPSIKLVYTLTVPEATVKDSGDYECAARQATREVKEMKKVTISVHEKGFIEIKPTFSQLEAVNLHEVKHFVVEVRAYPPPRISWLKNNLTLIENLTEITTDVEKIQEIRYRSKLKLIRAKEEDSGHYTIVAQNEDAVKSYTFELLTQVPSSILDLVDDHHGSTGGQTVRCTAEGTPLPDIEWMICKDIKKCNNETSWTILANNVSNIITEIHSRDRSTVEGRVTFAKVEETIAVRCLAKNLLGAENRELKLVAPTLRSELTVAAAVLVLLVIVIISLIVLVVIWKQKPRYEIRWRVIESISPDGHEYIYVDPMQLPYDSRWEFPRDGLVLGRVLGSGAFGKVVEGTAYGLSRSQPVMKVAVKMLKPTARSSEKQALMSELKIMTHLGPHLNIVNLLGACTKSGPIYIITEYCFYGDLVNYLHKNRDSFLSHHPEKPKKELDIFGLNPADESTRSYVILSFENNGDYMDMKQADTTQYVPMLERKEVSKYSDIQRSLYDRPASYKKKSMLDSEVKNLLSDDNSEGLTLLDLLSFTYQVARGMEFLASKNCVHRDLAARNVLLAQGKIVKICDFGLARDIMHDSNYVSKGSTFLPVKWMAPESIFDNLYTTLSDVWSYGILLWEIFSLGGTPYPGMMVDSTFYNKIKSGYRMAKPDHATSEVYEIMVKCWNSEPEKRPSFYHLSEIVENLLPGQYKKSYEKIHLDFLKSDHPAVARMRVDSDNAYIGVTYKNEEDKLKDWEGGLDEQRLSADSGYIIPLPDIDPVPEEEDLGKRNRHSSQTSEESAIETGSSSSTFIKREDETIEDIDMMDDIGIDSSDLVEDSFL

[12] = molecular target: Protein arginine N-methyltransferase 1 (Homo sapiens, UniProt Q99873); experiment: Inhibition of PRMT1 (unknown origin) using [3H-SAM] as substrate incubated for 1 hr by scintillation proximity assay
[13] = molecular target: Alpha-2C adrenergic receptor (Homo sapiens) (UniProt P18825); experiment: Inhibition of Alpha2C receptor (unknown origin) at 10 uM by radioligand binding assay relative to control
Sequence of Alpha-2C adrenergic receptor (Homo sapiens) (P18825 whole entry): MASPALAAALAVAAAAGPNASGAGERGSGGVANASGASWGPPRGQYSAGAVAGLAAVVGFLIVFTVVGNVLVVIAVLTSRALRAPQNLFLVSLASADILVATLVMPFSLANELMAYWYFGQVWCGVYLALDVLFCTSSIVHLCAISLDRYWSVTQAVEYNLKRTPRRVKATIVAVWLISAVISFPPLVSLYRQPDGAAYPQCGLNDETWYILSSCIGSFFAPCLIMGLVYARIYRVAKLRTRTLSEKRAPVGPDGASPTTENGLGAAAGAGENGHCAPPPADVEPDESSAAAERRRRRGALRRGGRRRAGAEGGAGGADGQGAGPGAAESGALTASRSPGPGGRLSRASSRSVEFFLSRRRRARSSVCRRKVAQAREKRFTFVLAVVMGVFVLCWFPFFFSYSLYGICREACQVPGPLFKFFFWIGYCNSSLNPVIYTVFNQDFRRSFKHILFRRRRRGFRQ

DB = experiment: Downregulation of EZH2 level in human DB cells at 3000 nM measured after 3 days; type: functional, cell-based; conditions: time 3.0 day
[14] = molecular target: Alpha-1D adrenergic receptor (Homo sapiens) (UniProt P25100); experiment: Inhibition of Alpha1D receptor (unknown origin) at 10 uM by radioligand binding assay relative to control
[15] = molecular target: Histone-lysine N-methyltransferase EZH2 (Homo sapiens, UniProt Q15910)
Sequence of Histone-lysine N-methyltransferase EZH2 (Q15910 whole entry, the tested form may be a part, canonical isoform): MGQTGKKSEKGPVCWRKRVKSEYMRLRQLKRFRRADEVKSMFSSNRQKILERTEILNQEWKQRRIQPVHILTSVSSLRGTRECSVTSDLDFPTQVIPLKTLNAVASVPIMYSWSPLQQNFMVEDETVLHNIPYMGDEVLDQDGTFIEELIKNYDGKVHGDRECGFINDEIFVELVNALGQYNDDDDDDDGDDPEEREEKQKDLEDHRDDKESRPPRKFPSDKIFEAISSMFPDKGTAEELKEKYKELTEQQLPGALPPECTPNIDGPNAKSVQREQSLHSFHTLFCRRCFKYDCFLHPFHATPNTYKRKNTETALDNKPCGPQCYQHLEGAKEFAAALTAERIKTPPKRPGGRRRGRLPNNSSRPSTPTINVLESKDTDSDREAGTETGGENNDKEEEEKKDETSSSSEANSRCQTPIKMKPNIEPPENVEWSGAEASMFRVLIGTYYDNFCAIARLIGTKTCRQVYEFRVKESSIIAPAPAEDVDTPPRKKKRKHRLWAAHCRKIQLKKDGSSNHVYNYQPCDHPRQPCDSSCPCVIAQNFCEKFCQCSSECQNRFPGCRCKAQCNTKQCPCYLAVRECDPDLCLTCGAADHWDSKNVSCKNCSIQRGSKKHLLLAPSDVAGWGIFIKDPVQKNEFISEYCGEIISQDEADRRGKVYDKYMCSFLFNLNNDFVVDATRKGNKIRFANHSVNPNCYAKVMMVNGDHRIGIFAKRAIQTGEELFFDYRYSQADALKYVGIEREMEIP
Description: Inhibition of human EZH2 in human MCF-10A cells assessed as reduction in H3K27me3 levels incubated for 72 hrs by In-cell western assay

[16] = molecular target: Casein kinase I isoform epsilon (Homo sapiens) (UniProt P49674); experiment: Inhibition of human catalytic domain N-terminal GST tagged CK1epsilon (1 to 348 residues) expressed in baculovirus expression system using ck-tide as substrate at 10 uM by mobility shift assay relative to control
Sequence of Casein kinase I isoform epsilon (Homo sapiens) (P49674 whole entry, looked up, the tested form may be a part, canonical isoform): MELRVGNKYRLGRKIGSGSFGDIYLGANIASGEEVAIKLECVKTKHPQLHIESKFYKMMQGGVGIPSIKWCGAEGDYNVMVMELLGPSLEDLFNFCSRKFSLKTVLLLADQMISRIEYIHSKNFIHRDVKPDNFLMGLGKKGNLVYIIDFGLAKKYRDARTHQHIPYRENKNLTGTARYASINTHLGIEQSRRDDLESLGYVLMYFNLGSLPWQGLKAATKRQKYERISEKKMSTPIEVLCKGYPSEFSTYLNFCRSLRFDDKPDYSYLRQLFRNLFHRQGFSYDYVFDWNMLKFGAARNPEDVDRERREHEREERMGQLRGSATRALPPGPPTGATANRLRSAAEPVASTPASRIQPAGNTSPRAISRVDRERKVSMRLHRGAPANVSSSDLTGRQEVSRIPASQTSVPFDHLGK

[17] = molecular target: Mitogen-activated protein kinase 14 (Homo sapiens) (UniProt Q16539); experiment: Inhibition of truncated human N-terminal GST-tagged p38 alpha (9 to 352 residues) expressed in Escherichia coli expression system using modified Erktide as substrate at 10 uM by mobility shift assay relative to control
Sequence of Mitogen-activated protein kinase 14 (Homo sapiens) (Q16539 whole entry, the tested form may be a part): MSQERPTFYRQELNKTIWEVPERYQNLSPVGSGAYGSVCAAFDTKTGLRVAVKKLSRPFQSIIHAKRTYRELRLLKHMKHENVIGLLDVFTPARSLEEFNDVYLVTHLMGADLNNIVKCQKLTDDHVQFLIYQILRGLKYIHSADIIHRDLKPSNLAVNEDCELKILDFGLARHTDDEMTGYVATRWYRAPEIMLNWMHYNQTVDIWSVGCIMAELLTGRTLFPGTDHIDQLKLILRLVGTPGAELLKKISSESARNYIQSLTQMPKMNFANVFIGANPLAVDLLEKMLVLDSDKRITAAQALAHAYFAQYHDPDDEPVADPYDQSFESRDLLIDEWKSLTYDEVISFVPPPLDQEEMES

[18] = molecular target: 5-hydroxytryptamine receptor 6 (Homo sapiens) (UniProt P50406); experiment: Inhibition of 5-HT6 receptor (unknown origin) at 10 uM by radioligand binding assay relative to control
Sequence of 5-hydroxytryptamine receptor 6 (Homo sapiens) (P50406 whole entry, the tested form may be a part): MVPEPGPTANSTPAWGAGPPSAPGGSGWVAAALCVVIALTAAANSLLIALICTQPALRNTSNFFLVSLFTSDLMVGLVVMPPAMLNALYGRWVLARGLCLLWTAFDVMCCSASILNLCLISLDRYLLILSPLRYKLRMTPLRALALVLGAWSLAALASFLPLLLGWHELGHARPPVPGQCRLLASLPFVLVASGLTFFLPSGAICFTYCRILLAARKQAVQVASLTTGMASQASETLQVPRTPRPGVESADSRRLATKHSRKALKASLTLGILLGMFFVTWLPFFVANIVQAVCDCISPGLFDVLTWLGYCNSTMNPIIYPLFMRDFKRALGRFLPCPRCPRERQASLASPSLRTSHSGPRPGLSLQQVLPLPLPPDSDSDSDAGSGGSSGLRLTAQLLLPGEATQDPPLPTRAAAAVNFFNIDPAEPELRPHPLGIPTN

[19] = Inhibition of human catalytic domain N-terminal GST tagged p70S6K (1 to 421 residues) expressed in baculovirus expression system using S6K2 peptide as substrate at 10 uM by mobility shift assay relative to control; conditions: condition weaver syndrome
[20] = molecular target: Sodium-dependent serotonin transporter (Homo sapiens) (UniProt P31645); experiment: Inhibition of SERT (unknown origin) at 10 uM by radioligand binding assay relative to control
Sequence of Sodium-dependent serotonin transporter (Homo sapiens) (P31645 whole entry, looked up): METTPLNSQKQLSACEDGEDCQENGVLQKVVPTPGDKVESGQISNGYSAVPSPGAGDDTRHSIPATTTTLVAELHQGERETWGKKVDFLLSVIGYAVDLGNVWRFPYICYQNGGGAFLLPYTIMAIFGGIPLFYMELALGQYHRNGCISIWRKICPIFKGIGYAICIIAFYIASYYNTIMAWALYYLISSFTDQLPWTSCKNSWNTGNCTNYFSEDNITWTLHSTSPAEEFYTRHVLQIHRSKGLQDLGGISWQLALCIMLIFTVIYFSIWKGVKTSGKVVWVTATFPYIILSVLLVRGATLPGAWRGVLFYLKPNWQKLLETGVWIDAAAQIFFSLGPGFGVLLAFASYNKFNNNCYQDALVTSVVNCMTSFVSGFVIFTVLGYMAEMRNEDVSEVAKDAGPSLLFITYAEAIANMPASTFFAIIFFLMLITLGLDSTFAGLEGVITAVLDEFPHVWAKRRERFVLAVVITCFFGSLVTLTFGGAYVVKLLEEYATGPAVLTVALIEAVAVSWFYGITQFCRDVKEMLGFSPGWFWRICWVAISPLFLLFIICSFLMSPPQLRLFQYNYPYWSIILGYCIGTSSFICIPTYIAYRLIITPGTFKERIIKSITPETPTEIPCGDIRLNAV

[21] = molecular target: Serine/threonine-protein kinase 4 (Homo sapiens) (UniProt Q13043); experiment: Inhibition of full length human N-terminal GST tagged MST1 (1 to 487 end residues) expressed in baculovirus expression system using IRS1 as substrate at 10 uM by mobility shift assay relative to control
[22] = molecular target: Histone-lysine N-methyltransferase KMT5C (Homo sapiens, UniProt Q86Y97); experiment: Inhibition of SUV420H2 (unknown origin) using [3H-SAM] as substrate incubated for 1 hr by scintillation proximity assay
[23] = molecular target: D(1A) dopamine receptor (Homo sapiens) (UniProt P21728); experiment: Inhibition of dopamine D1 receptor (unknown origin) at 10 uM by radioligand binding assay relative to control
[24] = molecular target: Lymphokine-activated killer T-cell-originated protein kinase (Homo sapiens) (UniProt Q96KB5); experiment: Inhibition of full length human N-terminal GST tagged PBK (1 to 322 end residues) expressed in baculovirus expression system using histone H3 as substrate at 10 uM by mobility shift assay relative to control
[25] = molecular target: N-lysine methyltransferase KMT5A (Homo sapiens, UniProt Q9NQR1); experiment: Inhibition of SETD8 (unknown origin) using [3H-SAM] as substrate incubated for 1 hr by scintillation proximity assay
[26] = molecular target: Mitogen-activated protein kinase 1 (Homo sapiens) (UniProt P28482); experiment: Inhibition of full length human N-terminal GST tagged Erk2 (1 to 360 end residues) expressed in Escherichia coli expression system using modified Erktide as substrate at 10 uM by mobility shift assay relative to control
Sequence of Mitogen-activated protein kinase 1 (Homo sapiens) (P28482 whole entry): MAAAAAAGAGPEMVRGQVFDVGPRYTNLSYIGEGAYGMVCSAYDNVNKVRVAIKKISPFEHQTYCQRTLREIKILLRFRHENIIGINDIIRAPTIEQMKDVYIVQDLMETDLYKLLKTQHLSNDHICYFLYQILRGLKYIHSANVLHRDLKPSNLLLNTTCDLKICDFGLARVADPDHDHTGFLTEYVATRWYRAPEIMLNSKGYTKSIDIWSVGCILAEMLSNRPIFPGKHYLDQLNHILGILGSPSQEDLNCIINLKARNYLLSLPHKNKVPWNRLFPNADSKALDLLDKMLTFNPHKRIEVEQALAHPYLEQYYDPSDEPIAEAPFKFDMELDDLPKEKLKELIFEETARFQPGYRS

SMILES: CCCc1cc(C)[nH]c(=O)c1CNC(=O)c1cc(-c2ccc(N3CCN(C(C)C)CC3)nc2)cc2c1cnn2C(C)C
- inhibition [1]: 30%
- inhibition [2]: -4%
- inhibition [3]: -2%
- inhibition [4]: 6%
- inhibition [5]: 10%
- Activity [6]: Non-Toxic
- inhibition [7]: -3%
- inhibition [8]: 4%
- inhibition [9]: -3%
- inhibition [10]: 5%
- inhibition [11]: -5%
- pIC50 [12]: < 4.00
- inhibition [13]: 47%
- Activity (DB): inactive
- inhibition [14]: 14%
- pIC50 [15]: 6.91
- inhibition [16]: -4%
- inhibition [17]: 0%
- inhibition [18]: 11%
- inhibition at 10 µM [19]: 6%
- inhibition [20]: 6%
- inhibition [21]: -5%
- pIC50 [22]: < 4.00
- inhibition [23]: 13%
- inhibition [24]: -10%
- pIC50 [25]: < 4.00
- inhibition [26]: 3%
